A short description of data set [1]: Solubility in water (qualitative observation). The class given is physicochemical. How it is done: Complex 1 was synthesized using the procedure reported by Fujita et al.,[20] and cubic bright-yellow crystals were obtained within hours. […] When a slightly lower concentration was used (0.4 mmol of platinum precursor instead of 0.5 mmol), keeping the amount of solvent constant, no crystallization occurred within a short time (3–4 h). However, some colorless needle-shaped crystals formed after an extended period of time (5–6 weeks). The crystals obtained from both conditions were analyzed via single-crystal X-ray diffractometry.
However, the release of olefin in an aqueous environment was detected to an extent of about 20% after 72 h. The chelating amino acid enhances the stability of complex 4 (>72 h) in comparison to compound 5 (69.6 ± 3.0 h).

The nature of data set [2]: Stability in aqueous solution followed by capillary electrophoresis. It counts as physicochemical. The method, then:
The stability of complexes 1–4 was tested in an aqueous solution, to investigate how the different ways of amino acid coordination impacts aqueous degradation (see Table 4). The stability of complex 5 was previously measured in a 50% methanolic solution.[4]
A solution of sodium tetraborate (final borate concentration of 50 mM) and sodium dodecyl sulfate (100 mM) was used as a background electrolyte (BGE). The pH of the BGE was adjusted to 9.3 by titration with 1 M NaOH. Every new capillary was rinsed with 1 M NaOH (45 min), water (45 min), and BGE (45 min) before the first use. The capillary was kept on a constant temperature of 25 °C, whereas the sample carousel was temperature-controlled at 37 °C. Sample injection was performed in hydrodynamic mode, applying a pressure of 50 mbar for 2 s on the inlet vial. The separation voltage was set at +20 kV. If not stated differently, a wavelength of 195 nm was employed for the DAD detector. The analytic window was evaluated by using dodecaphenone as a micellar marker and methanol (HPLC grade) as an electroosmotic flow (EOF) marker. The run time required for the analysis was estimated to be 25 min. The capillary was flushed before every run with 0.1 M NaOH (3 min), water (3 min), and BGE (5 min). Every value is calculated from at least three independent measurements. The half-lives were presented as the mean ± standard deviation. All of the samples, buffers, and washing solutions were membrane-filtered (0.22 μm pore size). All samples employed for stability experiments were prepared using benzoic acid as an internal standard (IS).

For the next data set, the target named is T1, human recombinant COX-2 (Homo sapiens, UniProt P35354).
T1 construct: purchased Cayman Chemicals
T1 sequence (P35354 18-604): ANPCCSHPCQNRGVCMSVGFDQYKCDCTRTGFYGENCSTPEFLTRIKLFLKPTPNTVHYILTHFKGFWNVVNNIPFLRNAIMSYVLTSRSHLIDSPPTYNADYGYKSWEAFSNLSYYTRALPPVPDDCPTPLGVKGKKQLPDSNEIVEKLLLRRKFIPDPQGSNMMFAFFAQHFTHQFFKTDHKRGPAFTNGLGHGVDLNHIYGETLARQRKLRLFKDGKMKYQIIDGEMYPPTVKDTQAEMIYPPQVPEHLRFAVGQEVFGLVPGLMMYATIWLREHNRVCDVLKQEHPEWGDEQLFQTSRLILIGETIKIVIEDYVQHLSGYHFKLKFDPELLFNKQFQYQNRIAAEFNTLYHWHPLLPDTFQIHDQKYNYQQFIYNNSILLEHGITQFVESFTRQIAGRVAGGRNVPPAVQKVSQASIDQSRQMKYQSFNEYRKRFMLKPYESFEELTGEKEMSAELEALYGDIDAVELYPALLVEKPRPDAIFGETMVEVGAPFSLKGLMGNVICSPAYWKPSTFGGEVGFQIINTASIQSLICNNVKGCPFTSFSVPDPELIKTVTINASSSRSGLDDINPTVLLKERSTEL
The experiment in a line: COX-2 inhibition, enzyme immunoassay (COX Inhibitor Screening Assay). The class given is biochemical. The following applies: 2 min incubation. The method, then:
Metal complexes containing an ASA moiety have been reported as inhibitors for COX-1/-2 previously.[4],[14],[40]−[44] […] Hereby, the isolated enzymes were treated with final concentrations of 10 and 25 μM of substances 1, 4, 5, and 6.
Inhibition of the isolated human recombinant COX-1 and COX-2 isoenzymes by the platinum complexes (10 and 25 μM) was evaluated using an enzyme immunoassay (EIA) (COX Inhibitor Screening Assay, Cayman Chemicals, Ann Arbor, Mi, USA) following the manufacturer’s protocol. The incubation time of the compounds with the respective isoenzymes was exactly 2 min. The results are presented as the mean ± SD of three independent experiments with two replicates of each experiment. The untreated control was set at 0% inhibition of the COX activity.

In data set [3] the test system is HT-29 colon carcinoma cell line. Description: MTT metabolic activity (cytotoxicity) assay, HT-29. The class given is cell-based. The following applies: 72 h incubation. The method, then: In order to determine the antitumor activity of the platinum complexes, in vitro cytotoxicity tests were performed. Compounds 1–4 were tested with cisplatin as a reference on the breast cancer cell line MCF-7 and the colon carcinoma cell line HT-29. Complexes 1, 4, and 5, as well as the ligand (but-3-en-1-yl 2-acetoxybenzoate, 6) were additionally evaluated on MDA-MB-231 cells and A2780cis cells, also using cisplatin as a reference. The metabolic activity as an indicator of cytotoxicity was determined by a classical 3-(4,5-dimethylthiazol-2-yl)-2,5-diphenyltetrazoliumbromid (MTT) assay.
The cell lines A2780cis and MDA-MB-231 were cultivated in RPMI 1640 without phenol red (PAN Biotech, Aidenbach, Germany), supplemented with L-glutamine (2 mM), 100 μg/mL penicillin, 100 μg/mL streptomycin, and FCS (10%) (all from Invitrogen Corporation, Gibco, Paisley, Scotland) at 37 °C in a 5% CO2/95% air atmosphere, and passaged twice per week. To maintain resistance, A2780cis cells were incubated every second week with cisplatin (1 μM). The cell lines MCF-7 and HT-29 were grown in DMEM without phenol red (PAN Biotech, Aidenbach, Germany), containing L-glutamine, 100 μg/mL penicillin, 100 μg/mL streptomycin, sodium pyruvate ([…]) (PAN Biotech), and FCS (10%) under the same conditions as the other cell lines.
The exponentially growing cell lines were seeded at a density of 2000 cells/well for MCF-7 cells, 4000 cells/well for HT-29 cells and MDA-MB-231 cells, and 8000 cells/well for A2780cis cells, respectively, into clear flat-bottom 96-well plates in triplicates. Following 24 h of incubation for adherence at 37 °C in a humidified atmosphere (5% CO2/95% air), the compounds were added to reach the desired concentrations between 10 and 100 μM, respectively. All stock solutions were prepared in dimethylformamide at a concentration of 100 mM and were then diluted with the respective cell-culture medium to the appropriate concentrations. After another 72 h of incubation, the cellular metabolic activity was measured by employing a MTT assay. Hereby, the yellow tetrazolium salt is converted to a purple formazan salt by the functioning mitochondria. These purple crystals are then dissolved in DMSO and can be quantified via absorption measurements at 570 and 420 nm. The optical density of the particular medium was subtracted in order to exclude the unspecific staining caused by the FCS-containing medium. The values were calculated with Excel 2019 (Microsoft, Redmond, WA, USA) using nonlinear regression and the decal logarithm of the inhibitor versus variable slope equation, while the top constraint was set to 100%.

As to “(Ethylene,N-trans)(L-alaninato-N,O)chlorido(η^2-(but-3-en-1-yl)-2-acetoxybenzoate)platinate(II) [compound 4]”, the “solubility in water (in words)” value in data set [1] is “better solubility in water”. The “half-life time (τ1/2) in aqueous environment, 50% methanol solution” value in data set [2] (50% methanol solution (footnote a of Table 4), CE) is >72 ^a h. For the same compound, the “release of olefin in aqueous environment” value in data set [2] (after 72 h) is reported as “about 20%”. The “% Inhibition COX-2” value turned out to be 20.04% on human recombinant COX-2 (10 μM) and 60.50 ± 7.63% on human recombinant COX-2 (25 μM). Further, inhibition in data set [3] was half-maximal at 20.63 ± 0.11 µM (IC50).
For the compound `C=C.C[C@H](N)C(=O)[O][Pt][Cl]` [1a, (Ethylene,N-trans)(L-alaninato-N,O)chlorido(η^2-ethene)platinate(II)], in data set [1], the “solubility in water (in words)” value is “moderately soluble in water”. For the same compound, the “half-life time (τ1/2) in water” value in data set [2] (water, CE, samples at 37 °C) is given as over 72 h. Also, the “% Inhibition COX-2” value at human recombinant COX-2 (10 μM) came out at 27.23%; on human recombinant COX-2 (25 μM), 52.36 ± 4.02%. The same compound yielded an IC50 in data set [3] of over 100 µM.

Source of the values: publication PMC10683014, “Amino Acids as Chelating Ligands for Platinum: Enhanced Stability in an Aqueous Environment Promoted by Biocompatible Molecules” (Journal of Medicinal Chemistry, 2023).
